These results are taken from paper PMC5513211, “PA-6 inhibits inward rectifier currents carried by V93I and D172N gain-of-function KIR2.1 channels, but increases channel protein expression” (Journal of Biomedical Science, 2017).

Changes are numbered by the printed parent chain. Where two headings read alike, the source gives them in different places.

For assay [1], the system named is WT, V93I and D172N KIR2.1 channels. The experiment in a line: Confocal immunofluorescence microscopy of KIR2.1 localization in HEK293T cells. It counts as cell-based, human. The conditions noted are these: 24 h, WT or mutant. As for the experimental part:
HEK293T and MES-1 cells were cultured on pre-coated (0.1% gelatin) glass coverslips and transfected using Lipofectamin (Invitrogen, Breda, The Netherlands). Cell fixation, immunolabeling and imaging were performed exactly as described earlier. Antibodies used were anti-KIR2.l (1:250; Santa Cruz Biotechnology, cat. no. sc-18708) and anti-Pan Cadherin (1:800, Sigma-Aldrich, St. Louis MO, USA, cat. No. C1821). HEK293T cells were imaged by confocal microscopy using a Zeiss LSM 700 confocal microscope (Carl Zeiss Microscopy GmbH, Germany) equipped with a 63× oil immersion objective (NA 1.4). Excitation was performed with an air-cooled Argon ion laser (LASOS, RMC 7812Z, 488 nm) for GFP and a HeNE (LASOS, SAN 7450A, 543 nm) laser for DyLight. MES-1 cells were imaged using a conventional Nikon eclipse 80i light microscopy equipped with a 40× objective (NA 0.75).

The next assay concerns the target T1, V93I KIR2.1 (Homo sapiens, UniProt P63252, V93I).
T1 construct: expressed in transfected cells; host or cells: HEK293T
T1 sequence (P63252 1-427 V93I): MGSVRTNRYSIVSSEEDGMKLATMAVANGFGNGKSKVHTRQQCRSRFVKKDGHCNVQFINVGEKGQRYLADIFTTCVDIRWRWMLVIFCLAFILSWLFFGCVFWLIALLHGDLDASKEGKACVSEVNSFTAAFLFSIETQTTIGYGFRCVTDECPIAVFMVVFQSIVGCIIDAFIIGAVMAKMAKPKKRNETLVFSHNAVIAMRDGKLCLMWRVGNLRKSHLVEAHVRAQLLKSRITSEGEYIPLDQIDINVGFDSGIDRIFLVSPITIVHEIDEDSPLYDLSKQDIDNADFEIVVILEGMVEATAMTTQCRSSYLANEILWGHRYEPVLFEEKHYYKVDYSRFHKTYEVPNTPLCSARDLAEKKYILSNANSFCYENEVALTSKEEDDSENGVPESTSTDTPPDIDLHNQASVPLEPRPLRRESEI
The experiment in a line: Western blot of KIR2.1 expression, transiently transfected HEK293T cells, V93I. It counts as cell-based. The conditions noted are these: 24 h. As for the experimental part:
HEK293T cells were grown in 60 mm culture dishes containing 3 mL DMEM supplemented with 10% FCS, L-Glutamine and Pen-Strep, and transfected using linear polyethylenimine (PEI) (PolysciencesInc, Eppelheim, Germany) as described earlier. Cell lysates were prepared in buffer D (20 mM HEPES, 125 mM NaCl, 10% glycerol, 1 mM EDTA, 1 mM EGTA, 1 mM dithiothreitol, and 1% Triton X-100, pH 7.6, supplemented with 1 mM PMSF and 10 μg/mL aprotinin). 20 μg protein lysate was separated by 10% SDS-PAGE and blotted onto nitrocellulose membrane. Ponceau staining was used to reveal equal protein loading and subsequent quantification. Blots were blocked with 5% (v/v) […] in TBST (20 mM Tris-HCl pH 8.0, 150 mM NaCl, 0.05% (v/v) Tween-20) for 1 h at room temperature. KIR2.1 WT and mutants were detected by N-terminal KIR2.1 antibody (Santa Cruz Biotechnology, Dallas Tx, USA, cat. No. sc-18708) and peroxidase-conjugated donkey anti-goat secondary antibody (Jackson ImmunoResearch, West Grove, PA, cat. No. 705-035-003) followed by ECL detection procedure (GE Healthcare, Hoevelaken, The Netherlands). For quantification purposes, untransfected HEK293T cells were used as blank and protein levels were normalized to ponceau staining levels. Differences between group averages were tested by using a one-way ANOVA with a Bonferroni’s post-hoc test.
(In general: A western blot detects proteins with antibodies after separation by electrophoresis.)

A further assay addresses T2, WT KIR2.1 (Homo sapiens, UniProt P63252).
T2 construct: expressed in transfected cells; host or cells: HEK293T
T2 sequence (P63252 1-427): T1 sequence (P63252 1-427 V93I) with I93V
The experiment in a line: Inside-out patch clamp, ramp protocol, WT KIR2.1 currents. In kind it is cell-based. The conditions noted are these: inside-out mode, HEK293T, 21 °C. The source says:
Mutations V93I and D172N were engineered into a human KCNJ2-pcDNA3 expression construct, using the QuikChange II XL Site-Directed Mutagenesis Kit (Stratagene, La Jolla, CA) and custom designed primers. The presence of the introduced mutations was confirmed by Sanger sequencing.
HEK293T cells were transfected with WT, V93I or D172N constructs together with a GFP expression construct to enable detection of transfected cells. Inside-out patch clamp measurements were made using a HEKA EPC-10 Double Plus amplifier controlled by PatchMaster 2.10 software (HEKA, Lambrecht/Pfalz, Germany) at 21 °C. To record WT, V93I and D172N KIR2.1 currents, inside-out patch-clamp measurements were performed using a ramp protocol ranging from −100 to +100 mV in 5 s from a holding potential of −40 mV. Excised patches were placed in close proximity to the inflow region of the perfusion chamber. Bath solution contained 125 mM KCl, 4 mM EDTA (2K), 7.2 mM K2HPO4, 2.8 mM KH2PO4, pH 7.20/KOH. Pipette solution contained 145 mM KCl, 1 mM CaCl2, 5 mM HEPES, pH 7.40/KOH. Measurements were started following washout of polyamines/Mg^2+ from the channel pore observed by the disappearance of current rectification. For IC50 curves, fractional block at −80 and +50 mV was determined by dividing current levels obtained with PA-6 containing solutions by current levels of control traces recorded in the absence of PA-6.

For the compound `N=C(Nc1ccc(OCCCCCOc2ccc(NC(=N)c3ccccc3)cc2)cc1)c1ccccc1` [PA-6], the “Subcellular location of KIR2.1 channels” value in assay [1] (1 μM) was “induced an intracellular increase of the channel proteins in small aggregates”; in assay [1] (5 μM), “further increased the level of intracellular accumulation”. The “Increase of KIR2.1 expression level” value at V93I KIR2.1 (5 μM) stood at 3.9 ± 0.9 fold. Further, the “Effect on KIR2.1 expression level at lower concentrations” value on V93I KIR2.1 (0.2 and 1 μM) is “did not result in significant increased expression”. Also, the IC50 – broadly, the midpoint of a concentration-inhibition curve – at WT KIR2.1 (at +50 mV, read-out: IC50, outward current) amounted to 35.5 nM; at WT KIR2.1 (at −80 mV, read-out: IC50, inward current) it was 52.9 nM.
